“Also recorded” adds a separate entry of the source.

The values that follow come from patent publication US20050245541A1, “Methods for treating alcoholism” (priority 2004, published 2005).

The test system of assay [1] is rat model of alcohol self-administration. Put plainly: Ethanol self-administration (operant lever press) in trained rats. In kind it is in vivo, rat (male Wistar). As for the experimental part: FIG. 1B is a bar graph showing the amount of ethanol (EtOH) consumed in g/kg at various doses of naltrexone. Based on the number of lever press responses following a dose of naltrexone (FIG. 1A), the corresponding amount of absolute ethanol consumed (g/kg) was calculated. To calculate the amount of absolute ethanol consumed, divide the number of lever presses by 2 to obtain the number of earned reinforcements. From this number, the total volume of the alcohol “cocktail” (10% EtOH in 0.04% saccharine solution) consumed was obtained. The grams of absolute EtOH consumed=the total “cocktail” volume consumed×10% EtOH×0.793 g EtOH/mL. The amount of ethanol (g) divided by the animal's weight (kg) gives the amount of absolute ethanol consumed in g/kg.
Male Wistar rats (starting weight of 200±30 grams; Charles River Laboratories, Mass.) were individually housed with free access to food and water. The vivarium was maintained within the temperature and relative humidity range specified within the Guide for Care and Use of Laboratory Animals (NIH Publication No. 86-23, revised 1985). These conditions were recorded once daily throughout the study. The vivarium was on a 12 hour light/dark schedule. All animal studies were reviewed and approved by the Alkermes' IACUC (protocol #04-2A).
Animals were trained daily in an operant chamber to press a lever to receive access to an ethanol cocktail as a reinforcer using a saccharin fading procedure. […] The final ethanol cocktail contained 10% ethanol in 0.04% saccharine. Each session lasted 30 minutes, during which the rat could press the lever twice to gain access to 0.1 mL of the ethanol cocktail. The operant chamber (Coulbourne Instruments, Allentown, Pa.) is a computer-controlled automated system which recorded the number of lever presses completed by a rat. At the end of the training period (6-8 weeks), rats which consistently drank a sufficient quantity of ethanol to produce a pharmacological effect (minimum intake of 0.6 g/kg/hour) were selected to participate in the drug studies. These trained rats were used repeatedly throughout these studies to control for intra-subject variability. All drugs were administered acutely with a minimum of a 2 day drug washout period.
Naltrexone was prepared daily in 0.9% saline and administered subcutaneously (SC). The dopamine D2 partial agonist aripiprazole was suspended in 3% carboxymethyl cellulose; a total volume of 1 mL/kg of this suspension was delivered orally (PO) to the rat using a gavage tube. See Table 1 for source and lot numbers of the drugs tested.
The ability of naltrexone to reduce ethanol drinking (i.e., decrease the number of lever presses) was assessed in this animal model of self administration of ethanol. Thirty minutes after the administration of naltrexone (0-6 mg/kg, SC), the animals were placed in the operant chamber and allowed to lever press for the 10% ethanol cocktail. The total number of lever presses was recorded over the 30 minute test session. The rats were repeatedly dosed with naltrexone to generate a dose-response curve for each individual animal.
The dopamine D2 partial agonist aripiprazole was coadministered with naltrexone to determine if it affected naltrexone's ability to decease ethanol drinking. The dose of naltrexone used in this series of studies was the ED50 (that is, the dose of naltrexone that produced a 50% decrease in lever responses for ethanol as determined from the dose-response study). This dose allows one to determine if the coadministered drugs impaired or enhanced naltrexone's effect on ethanol drinking. Aripiprazole was administered orally 30 minutes prior to a naltrexone injection (SC) (i.e., 60 minutes prior to the beginning of the ethanol drinking test session). The number of lever presses for the ethanol cocktail was recorded at the end of the 30 minute session.

For assay [2], the system named is audiogenic-induced convulsions in mice exhibiting symptoms of alcohol withdrawal. Briefly: Audiogenic-induced convulsions in mouse model of alcohol withdrawal. The conditions noted are these: for Withdrawal Rating (mean ± sem), behavioral response scale of 1-4: mouse. In kind it is in vivo, mouse (male C57BL/6). As for the experimental part: Male C57BL/6 mice (starting weight of 15-18 grams; Charles River Laboratories, Mass.) were housed in groups of 4 on a ventilated rack with free access to food and water. The vivarium was maintained within the temperature and relative humidity range specified within the Guide for Care and Use of Laboratory Animals (NIH Publication No. 86-23, revised 1985). These conditions were recorded once daily throughout the study. The vivarium was on a 12 hour light/dark schedule. All animal studies were reviewed and approved by the Alkermes' IACUC (protocol #04-8A).
Persistent high alcohol levels in blood and brain are required to develop withdrawal symptoms following termination of alcohol availability. […] Alcohol is provided in a nutritionally balanced liquid diet. This diet becomes the animal's sole source of food and water. While the experimenter controls the duration of the alcohol exposure, the animal determines the dose and pattern of consumption.
After a 3-5 day acclimation period, the mice were individually identified (tail mark with permanent marker) and weighed. The normal rodent chow and water was replaced with a nutritionally complete control liquid diet (Bio-Serv, Lieber-DeCarli diet) for a 5-7 day habituation period. Acquisition of EtOH drinking in mice involved a gradually escalating ethanol concentration procedure. Ethanol treated animals received an EtOH liquid diet containing 1.5% EtOH for 5-7 days. The EtOH concentration was increased every 5-7 days to a final concentration of 6.7%. The liquid diet was administered in a screw capped graduated 100 mL liquid feeding tube mounted inside the cage. The volume of remaining diet was measured and the diet changed daily. The mice were observed daily and weighed every week to assure adequate EtOH diet intake.
Development of alcohol withdrawal symptoms requires a cycle of alcohol/no alcohol. The animals were given a period of 14 days of the EtOH diet (6.7%), 2 days of control diet (balanced isocalorically with maltose dextrin replacing the EtOH) and 5-6 days of the EtOH diet.
One of the hallmark symptoms of alcohol withdrawal in mice is the occurrence of convulsions. These can occur spontaneously, from handling the animal, from a sudden loud sound (audiogenic) or from subthreshold doses of chemical convulsants. For this series of studies, the occurrence of audiogenic-induced convulsions was used as a measure of alcohol withdrawal. […]
Mice from each cage were randomly assigned to one of three groups, vehicle+saline, aripiprazole (10 mg/kg, PO)+saline, or aripiprazole (10 mg/kg, PO)+naltrexone (3 mg/kg, IP). […] Each mouse's behavior in response to the bell was observed by two investigators and the agreed upon results were recorded.

Assay [3] relates to rat model of alcohol self-administration. Put plainly: Ethanol self-administration (operant lever press) in trained rats. In kind it is in vivo, rat (male Wistar). The settings on record: naltrexone 0.5 mg/kg sc, 0.1% saccharine solution substituted for ethanol cocktail.

Turning to `O=C1CCc2ccc(OCCCCN3CCN(c4cccc(Cl)c4Cl)CC3)cc2N1` [Aripiprazole, 7-{4-[4-(2,3-dichlorophenyl)-1-piperazinyl]-butoxy}-3-,4-dihydro carbostyril], the “Number of Lever Presses (mean ± sem)” value was 42 ± 11 in assay [1] (aripiprazole 0.1 mg/kg PO + naltrexone 0.1 mg/kg SC, rat); 45 ± 8 in assay [1] (aripiprazole 1.0 mg/kg PO + naltrexone 0.1 mg/kg SC, rat); 37 ± 7 in assay [1] (aripiprazole 10.0 mg/kg PO + naltrexone 0.1 mg/kg SC, rat); 118 ± 26 in assay [1] (aripiprazole 10.0 mg/kg PO, no naltrexone, rat). Also, in assay [1] (aripiprazole 0.1-10 mg/kg PO + naltrexone SC, rat), the “Ethanol-motivated lever presses, combination of naltrexone and aripiprazole versus naltrexone alone” value is reported as “no statistical difference”. For the same compound, the “Withdrawal Rating (mean ± sem), behavioral response scale of 1-4” value in assay [2] (aripiprazole 10 mg/kg PO + naltrexone 3 mg/kg) and in assay [2] (aripiprazole 10 mg/kg PO + saline) was 1.0 ± 0.0 each time. Moreover, the “Anticonvulsant effect on the audiogenic convulsion test” value in assay [2] (aripiprazole 10 mg/kg PO with or without naltrexone, p=0.004) is “significant drug effect (anticonvulsant effect)”.
For the compound `O=C1CC[C@@]2(O)[C@H]3Cc4ccc(O)c5c4[C@@]2(CCN3CC2CC2)[C@H]1O5` [Naltrexone], in assay [1] (aripiprazole 0.0 mg/kg PO (vehicle) + naltrexone 0.1 mg/kg SC, rat), the “Number of Lever Presses (mean ± sem)” value was found to be 62 ± 13. In assay [1] (lowest dose of naltrexone tested, 0.05 mg/kg), the “Decrease in lever presses versus baseline and vehicle control (significance)” value is listed as “no significant decrease”. Also, the “Decrease in the number of lever presses compared to baseline” value in assay [1] (naltrexone alone group of the aripiprazole interaction study (naltrexone 0.1 mg/kg SC per Table 4)) is listed as 47.54%. The “Difference between naltrexone and non-naltrexone groups on the audiogenic convulsion test” value in assay [2] (naltrexone 3 mg/kg coadministered with aripiprazole 10 mg/kg PO) is recorded as “no statistical differences”. The “Specificity of decrease in drinking: lever pressing for saccharine versus ethanol cocktail” value in assay [3] is on record as “to the same degree as under the non-drug baseline condition; also recorded: selective for decreasing ethanol drinking in rats (but not saccharine drinking)”.
